Source: patent publication US10336762B2 (priority 2017, dated 2019)
pEC50, pIC50: −log10 of the molar value.

Assays:
IRAK4 enzyme = IRAK4 enzyme (Homo sapiens (Human), UniProt Q9NWZ3); assay: biochemical; format: biochemical; settings: IRAK4 enzyme, TR-FRET (HTRF), 500 μM ATP
TNFα = assay: cells; format: cell-based, human; settings: Homo sapiens, Monocyte, LPS-stimulated human monocytes, TNFα content; read-out: EC50 TNF

Chain of IRAK4 enzyme (Q9NWZ3 whole entry): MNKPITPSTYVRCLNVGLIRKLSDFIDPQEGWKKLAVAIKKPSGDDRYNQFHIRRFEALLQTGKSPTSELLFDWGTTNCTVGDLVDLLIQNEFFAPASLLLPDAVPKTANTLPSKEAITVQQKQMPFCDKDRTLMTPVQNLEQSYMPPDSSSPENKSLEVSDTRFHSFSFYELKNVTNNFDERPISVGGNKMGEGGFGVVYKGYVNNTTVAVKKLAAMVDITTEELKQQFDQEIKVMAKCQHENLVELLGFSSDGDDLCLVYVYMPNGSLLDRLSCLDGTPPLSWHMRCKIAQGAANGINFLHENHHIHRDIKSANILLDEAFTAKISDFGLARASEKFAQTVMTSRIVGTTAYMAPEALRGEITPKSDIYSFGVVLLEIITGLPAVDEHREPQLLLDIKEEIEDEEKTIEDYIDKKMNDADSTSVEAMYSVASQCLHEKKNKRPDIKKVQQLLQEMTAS

Structure (SMILES): CC(C)(O)[C@H](F)CNC(=O)c1cnc(-c2ccc3cc(C#N)cnn23)cc1Nc1ncc(C#N)cn1 [Example 420, (R)-4-((5-cyanopyrimidin-2-yl)amino)-6-(3-cyano-pyrrolo[1,2-b]pyridazin-7-yl)-N-(2-fluoro-3-hydroxy-3-methylbutyl)nicotinamide]
- pIC50 (IRAK4 enzyme): 8.22
- pEC50 (TNFα): 6.91

Structure (SMILES): CC(C)(O)[C@H](F)CNC(=O)c1cnc(-c2ccc3cc(C#N)cnn23)cc1NC12CCC(CC1)CC2 [Example 421, (R)-4-(bicyclo[2.2.2]octan-1-ylamino)-6-(3-cyano-pyrrolo[1,2-b]pyridazin-7-yl)-N-(2-fluoro-3-hydroxy-3-methylbutyl)nicotinamide]
- pIC50 (IRAK4 enzyme): 8.70
- pEC50 (TNFα): 7.62

Structure (SMILES): CC(C)(O)[C@H](F)CNC(=O)c1cnc(-c2ccc3cc(C#N)cnn23)cc1N[C@H]1CC[C@H](NC(=O)C2(F)CC2)CC1 [Example 422, 6-(3-cyanopyrrolo[1,2-b]pyridazin-7-yl)-N-((R)-2-fluoro-3-hydroxy-3-methylbutyl)-4-(((1r,4R)-4-(1-fluorocyclopropane-1-carboxamido)cyclohexyl)amino)nicotinamide]
- pIC50 (IRAK4 enzyme): 8.70
- pEC50 (TNFα): 7.12

Structure (SMILES): CC1(C(=O)N[C@H]2CC[C@H](Nc3cc(-c4ccc5cc(C#N)cnn45)ncc3C(=O)NC[C@@H](F)C(C)(C)O)CC2)CC1 [Example 423, 6-(3-cyanopyrrolo[1,2-b]pyridazin-7-yl)-N-((R)-2-fluoro-3-hydroxy-3-methyl-butyl)-4-(((1r,4R)-4-(1-methylcyclopropane-1-carboxamido)cyclohexyl)amino)nicotinamide]
- pIC50 (IRAK4 enzyme): 8.70
- pEC50 (TNFα): 7.03

Structure (SMILES): C=CC(=O)NC12CCC(Nc3cc(-c4ccc5cc(C#N)cnn45)ncc3C(=O)NC[C@@H](F)C(C)(C)O)(CC1)CC2 [Example 424, (R)-4-((4-acrylamidobicyclo[2.2.2]octan-1-yl)amino)-6-(3-cyanopyrrolo[1,2-b]pyridazin-7-yl)-N-(2-fluoro-3-hydroxy-3-methyl-butyl)nicotinamide]
- pIC50 (IRAK4 enzyme): 9.00
- pEC50 (TNFα): 7.74

Structure (SMILES): C=CC(=O)N[C@H]1CC[C@H](Nc2cc(-c3ccc4cc(C#N)cnn34)ncc2C(=O)NC[C@@H](F)C(C)(C)O)CC1 [Example 425, 4-(((1r,4R)-4-acrylamidocyclohexyl)amino)-6-(3-cyano-pyrrolo[1,2-b]pyridazin-7-yl)-N-((R)-2-fluoro-3-hydroxy-3-methylbutyl) nicotinamide]
- pIC50 (IRAK4 enzyme): 8.70
- pEC50 (TNFα): 6.92

Structure (SMILES): N#Cc1cnn2c(-c3cc(N[C@H]4CCC[C@@H](O)C4)c(C(=O)NC4C[C@H]4F)cn3)ccc2c1 (stereo partly drawn) [Example 426, 6-(3-cyanopyrrolo[1,2-b]pyridazin-7-yl)-N-((2R)-2-fluorocyclopropyl)-4-(((1S,3R)-3-hydroxycyclo-hexyl)amino)nicotinamide]
- pIC50 (IRAK4 enzyme): 8.30
- pEC50 (TNFα): 6.23

Structure (SMILES): N#Cc1cnn2c(-c3cc(N[C@H]4CCC[C@@H](O)C4)c(C(=O)NC4CC5(C4)CC(F)(F)C5)cn3)ccc2c1 [Example 427, 6-(3-cyanopyrrolo[1,2-b]pyridazin-7-yl)-N-(6,6-difluorospiro[3.3]heptan-2-yl)-4-(((1S,3R)-3-hydroxycyclohexyl)amino) nicotinamide]
- pIC50 (IRAK4 enzyme): 8.70
- pEC50 (TNFα): 6.56

Structure (SMILES): N#Cc1cnn2c(-c3cc(N[C@H]4CCC[C@@H](O)C4)c(C(=O)NCC4(C#N)CC4)cn3)ccc2c1 [Example 428, N-((1-cyanocyclopropyl)methyl)-6-(3-cyano-pyrrolo[1,2-b]pyridazin-7-yl)-4-(((1S,3R)-3-hydroxycyclohexyl)amino)nicotinamide]
- pIC50 (IRAK4 enzyme): 7.20
- pEC50 (TNFα): 5.37

Structure (SMILES): CC(C)(O)[C@H](F)CNC(=O)c1cnc(-c2ccc3cc(C#N)cnn23)cc1N[C@]1(C)C[C@@H](O)C1 [Example 429, 6-(3-cyanopyrrolo[1,2-b]pyridazin-7-yl)-N-((R)-2-fluoro-3-hydroxy-3-methylbutyl)-4-(((1r,3R)-3-hydroxy-1-methylcyclo-butyl)amino)nicotinamide]
- pIC50 (IRAK4 enzyme): 9.00
- pEC50 (TNFα): 7.44

Structure (SMILES): N#Cc1cnn2c(-c3cc(N[C@H]4CCC[C@@H](O)C4)c(C(=O)NC4CC4(F)F)cn3)ccc2c1 (stereo partly drawn) [Example 430, 6-(3-cyanopyrrolo[1,2-b]pyridazin-7-yl)-N-(2,2-difluorocyclopropyl)-4-(((1S,3R)-3-hydroxy-cyclohexyl)amino) nicotinamide]
- pIC50 (IRAK4 enzyme): 7.85
- pEC50 (TNFα): 6.31

Structure (SMILES): CC(C)(O)[C@H](F)CNC(=O)c1cnc(-c2ccc3cc(C#N)cnn23)cc1N[C@]1(C)CC[C@H](O)CC1 [Example 432, 6-(3-cyanopyrrolo[1,2-b]pyridazin-7-yl)-N-((R)-2-fluoro-3-hydroxy-3-methylbutyl)-4-(((1s,4S)-4-hydroxy-1-methylcyclohexyl)amino) nicotinamide]
- pIC50 (IRAK4 enzyme): > 9.00
- pEC50 (TNFα): 7.43

Structure (SMILES): CC(C)(O)[C@H](F)CNC(=O)c1cnc(-c2ccc3cc(C#N)cnn23)cc1N[C@]1(C)C[C@H](O)C1 [Example 433, 6-(3-cyanopyrrolo[1,2-b]pyridazin-7-yl)-N-((R)-2-fluoro-3-hydroxy-3-methylbutyl)-4-(((1s,3S)-3-hydroxy-1-methylcyclobutyl)amino) nicotinamide]
- pIC50 (IRAK4 enzyme): > 9.00
- pEC50 (TNFα): 7.33

Structure (SMILES): CC(C)(O)[C@H](F)CNC(=O)c1cnc(-c2ccc3cc(C#N)cnn23)cc1Nc1ccc2c(c1)CNC2=O [Example 434, (R)-6-(3-cyanopyrrolo[1,2-b]pyridazin-7-yl)-N-(2-fluoro-3-hydroxy-3-methylbutyl)-4-((1-oxoisoindolin-5-yl)amino)nicotinamide]
- pIC50 (IRAK4 enzyme): > 9.00
- pEC50 (TNFα): 6.97

Structure (SMILES): CC(C)(O)[C@H](F)CNC(=O)c1cnc(-c2ccc3cc(C#N)cnn23)cc1Nc1ccc(O)nc1 [Example 435, (R)-6-(3-cyanopyrrolo[1,2-b]pyridazin-7-yl)-N-(2-fluoro-3-hydroxy-3-methylbutyl)-4-((6-hydroxypyridin-3-yl)amino)nicotinamide]
- pIC50 (IRAK4 enzyme): 5.00
- pEC50 (TNFα): < 5.00

Structure (SMILES): CC(C)(O)[C@H](F)CNC(=O)c1cnc(-c2ccc3cc(C#N)cnn23)cc1NCCCCS(C)(=O)=O [Example 438, (R)-6-(3-cyanopyrrolo[1,2-b]pyridazin-7-yl)-N-(2-fluoro-3-hydroxy-3-methylbutyl)-4-((4-(methylsulfonyl)butyl)amino)nicotinamide]
- pIC50 (IRAK4 enzyme): 9.00
- pEC50 (TNFα): 6.87

Structure (SMILES): CCS(=O)(=O)CCCNc1cc(-c2ccc3cc(C#N)cnn23)ncc1C(=O)NC[C@@H](F)C(C)(C)O [Example 439, (R)-6-(3-cyanopyrrolo[1,2-b]pyridazin-7-yl)-4-((3-(ethylsulfonyl)propyl)amino)-N-(2-fluoro-3-hydroxy-3-methylbutyl) nicotinamide]
- pIC50 (IRAK4 enzyme): > 9.00
- pEC50 (TNFα): 7.40

Structure (SMILES): CC(CCS(C)(=O)=O)Nc1cc(-c2ccc3cc(C#N)cnn23)ncc1C(=O)NC[C@@H](F)C(C)(C)O (stereo partly drawn) [Example 440, 6-(3-cyanopyrrolo[1,2-b]pyridazin-7-yl)-N-((R)-2-fluoro-3-hydroxy-3-methylbutyl)-4-((4-(methylsulfonyl)butan-2-yl)amino)nicotinamide]
- pIC50 (IRAK4 enzyme): 8.70
- pEC50 (TNFα): 6.15

Structure (SMILES): Cn1ccc(Nc2cc(-c3ccc4cc(C#N)cnn34)ncc2C(=O)NC[C@@H](F)C(C)(C)O)cc1=O [Example 442, (R)-6-(3-cyanopyrrolo[1,2-b]pyridazin-7-yl)-N-(2-fluoro-3-hydroxy-3-methylbutyl)-4-((1-methyl-2-oxo-1,2-dihydropyridin-4-yl)amino)nicotinamide]
- pIC50 (IRAK4 enzyme): 9.00
- pEC50 (TNFα): 6.98

Structure (SMILES): CC(C)(O)[C@H](F)CNC(=O)c1cnc(-c2ccc3cc(C#N)cnn23)cc1N[C@H]1C[C@H](S(C)(=O)=O)C1 [Example 443, 6-(3-cyanopyrrolo[1,2-b]pyridazin-7-yl)-N-((R)-2-fluoro-3-hydroxy-3-methylbutyl)-4-(((1r,3R)-3-(methylsulfonyl)cyclobutyl)amino)nicotinamide]
- pIC50 (IRAK4 enzyme): 9.00
- pEC50 (TNFα): 6.96

Structure (SMILES): CC(C)(O)[C@H](F)CNC(=O)c1cnc(-c2ccc3cc(C#N)cnn23)cc1N[C@H]1CC[C@](C)(O)CC1 [Example 445, 6-(3-cyanopyrrolo[1,2-b]pyridazin-7-yl)-N-((R)-2-fluoro-3-hydroxy-3-methylbutyl)-4-(((1r,4R)-4-hydroxy-4-methylcyclo-hexyl)amino)nicotinamide]
- pIC50 (IRAK4 enzyme): 9.00
- pEC50 (TNFα): 7.23

Structure (SMILES): CC(C)(O)[C@H](F)CNC(=O)c1cnc(-c2ccc3cc(C#N)cnn23)cc1N[C@H]1C[C@](C)(O)C1 [Example 446, 6-(3-cyanopyrrolo[1,2-b]pyridazin-7-yl)-N-((R)-2-fluoro-3-hydroxy-3-methylbutyl)-4-(((1r,3R)-3-hydroxy-3-methylcyclobutyl)amino) nicotinamide]
- pIC50 (IRAK4 enzyme): 9.00
- pEC50 (TNFα): 7.20

Structure (SMILES): CC(=O)N1CC2(CC(Nc3cc(-c4ccc5cc(C#N)cnn45)ncc3C(=O)NC[C@@H](F)C(C)(C)O)C2)C1 [Example 447, (R)-4-((2-acetyl-2-azaspiro[3.3]heptan-6-yl)amino)-6-(3-cyano-pyrrolo[1,2-b]pyridazin-7-yl)-N-(2-fluoro-3-hydroxy-3-methylbutyl) nicotinamide]
- pIC50 (IRAK4 enzyme): 8.30
- pEC50 (TNFα): 6.54

Structure (SMILES): CC(C)(C)OC(=O)N1CC2(CC(Nc3cc(-c4ccc5cc(C#N)cnn45)ncc3C(=O)NC[C@@H](F)C(C)(C)O)C2)C1 [Example 448, (R)-tert-butyl 6-((2-(3-cyanopyrrolo[1,2-b]pyridazin-7-yl)-5-((2-fluoro-3-hydroxy-3-methylbutyl)carbamoyl)pyridin-4-yl)amino)-2-azaspiro[3.3]heptane-2-carboxylate]
- pIC50 (IRAK4 enzyme): 7.49
- pEC50 (TNFα): 5.69

Structure (SMILES): CC(=O)N1CC(Nc2cc(-c3ccc4cc(C#N)cnn34)ncc2C(=O)NC[C@@H](F)C(C)(C)O)C1 [Example 449, (R)-4-((1-acetylazetidin-3-yl)amino)-6-(3-cyano-pyrrolo[1,2-b]pyridazin-7-yl)-N-(2-fluoro-3-hydroxy-3-methylbutyl)nicotinamide]
- pIC50 (IRAK4 enzyme): 8.52
- pEC50 (TNFα): 6.44

Structure (SMILES): CC(C)(O)[C@H](F)CNC(=O)c1cnc(-c2ccc3cc(C#N)cnn23)cc1N[C@H]1C[C@@](C)(O)C1 [Example 450, 6-(3-cyanopyrrolo[1,2-b]pyridazin-7-yl)-N-((R)-2-fluoro-3-hydroxy-3-methylbutyl)-4-(((1s,3S)-3-hydroxy-3-methylcyclo-butyl)amino)nicotinamide]
- pIC50 (IRAK4 enzyme): > 9.00
- pEC50 (TNFα): 7.36
